Experiments:
Format in all cases: in vivo
[1] = test system: M. incognita (Root Knot Nematode) larvae; assay: Evaluation of test compounds against M. incognita larvae in microtiter plate wells (movement score); conditions: larvae scored for movement after 20-24 hours; note: key: A score of '9' indicates inactive worms with a straight, sticklike morphology; A score of '8' indicates inactive worms with a limp, curled or curved morphology; A score of '7' indicates dead/paralyzed worms after 72 hours
Outline: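 Newly emerged M. incognita larvae in S Medium (buffered salt solution), 50-65 worms per well, exposed to test compounds in sealed microtiter wells. Movement scored after 20-24 h incubation; wells with obviously dead/paralyzed larvae scored positive. A score of "7" denotes dead/paralyzed worms after […].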

[2] = test system: C. elegans (Bristol strain); assay: Evaluation of test compounds against C. elegans (motility, 96-well plate); parameters: key: 9=complete kill in 4 hours; 8=complete kill in 24 hours; 7=markedly reduced motility in approximately 95% of worms in 24 hours; 0=normal motility, same as controls; conditions: motility at 4 and 24 hours
Outline: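 Bristol-strain C. elegans in Na buffer added to wells containing dried compound (applied in 80% acetone) and incubated at 20 °C. Motility of adults and larvae scored subjectively but semi-quantitatively under a dissecting microscope at 4 and 24 h after immersion, plates tapped before reading.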

[3] = test system: Spodoptera eridania, 2nd instar larvae, southern armyworm (SAW); assay: Southern armyworm (SAW) leaf dip test; parameters: key: 0 = no effect; 1 = 10-25% kill; 2 = 26-35% kill; 3 = 36-45% kill; 4 = 46-55% kill; 5 = 56-65% kill; 6 = 66-75% kill; 7 = 76-85% kill; 8 = 86-99% kill; 9 = 100% kill
Outline: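 Compound is dissolved at 10,000 ppm in 35% acetone/water, then diluted with water. Lima bean leaves are dipped for 3 seconds, dried and placed with ten 2nd instar larvae on damp filter paper. Mortality, reduced feeding and molting interference are scored at 5 days.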

[4] = test system: Diabrotica virgifera virgifera Leconte, 2nd instar western corn rootworm (WCR); assay: Western corn rootworm (WCR) soil test; parameters: key: 0 = no effect; 1 = 10-25% kill; 2 = 26-35% kill; 3 = 36-45% kill; 4 = 46-55% kill; 5 = 56-65% kill; 6 = 66-75% kill; 7 = 76-85% kill; 8 = 86-99% kill; 9 = 100% kill
Outline: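 Compound in 35% acetone/water applied to talc at 1.25 mg active ingredient per jar (about 50 kg/ha), solvent evaporated, then mixed with millet seed and moist soil. Ten 2nd-instar larvae per jar; mortality counted after 5 days, missing larvae scored dead.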

[5] = test system: Tetranychus urticae (OP-resistant strain), 2-spotted spider mite (TSM); assay: 2-spotted spider mite (TSM) plant dip test; parameters: key: 0 = no effect; 1 = 10-25% kill; 2 = 26-35% kill; 3 = 36-45% kill; 4 = 46-55% kill; 5 = 56-65% kill; 6 = 66-75% kill; 7 = 76-85% kill; 8 = 86-99% kill; 9 = 100% kill; conditions: mortality after 2 days
Outline: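 OP-resistant mites (~100 per leaf) were transferred onto Sieva lima bean primary leaves about 2 h before treatment. Infested plants were dipped for 3 s in compound from a 10,000 ppm stock in 35% acetone/water, diluted with water. Mortality was counted after 2 days.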

[6] = test system: Aphis gossypii, cotton aphid (CA); assay: Cotton aphid (CA) cotyledon dip test; parameters: key: 0 = no effect; 1 = 10-25% kill; 2 = 26-35% kill; 3 = 36-45% kill; 4 = 46-55% kill; 5 = 56-65% kill; 6 = 66-75% kill; 7 = 76-85% kill; 8 = 86-99% kill; 9 = 100% kill; conditions: mortality after 5 days
Outline: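 Cotyledon-stage cotton plants infested overnight via a heavily infested leaf, then dipped in test solution (compound in 35% acetone/water, diluted with water) and dried. Mortality counted after 5 days.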

[7] = test system: Spodoptera eridania, eggs-southern armyworm (SAW-Eggs); assay: Southern armyworm eggs (SAW-Eggs) treated diet test; parameters: key: 0 = no effect; 1 = 10-25% kill; 2 = 26-35% kill; 3 = 36-45% kill; 4 = 46-55% kill; 5 = 56-65% kill; 6 = 66-75% kill; 7 = 76-85% kill; 8 = 86-99% kill; 9 = 100% kill; conditions: mortality after 7 days
Outline: (§1)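 Compounds dissolved at 10,000 ppm in 35% acetone/water, diluted with water, applied to artificial diet in wells and dried. Southern corn rootworm or southern armyworm eggs placed on treated diet under vented covers; mortality counted after 7 days.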

[8] = test system: Diabrotica undecimpunctata howardi, eggs-southern corn rootworm (SCR-Eggs); assay: Southern corn rootworm eggs (SCR-Eggs) treated diet test; parameters: key: 0 = no effect; 1 = 10-25% kill; 2 = 26-35% kill; 3 = 36-45% kill; 4 = 46-55% kill; 5 = 56-65% kill; 6 = 66-75% kill; 7 = 76-85% kill; 8 = 86-99% kill; 9 = 100% kill; conditions: mortality after 7 days
Outline: as §1

Structure (SMILES)	M. incognita (150 ppm) score [1]	Rating Against C. elegans (150 ppm) [2]	SAW (300 ppm) rating [3]	WCR (50 ppm) rating [4]	TSM (300 ppm) rating [5]	CA (300 ppm) rating [6]	SAW Eggs (300 ppm) rating [7]	SCR Eggs (1000 ppm) rating [8]
O=[N+]([O-])CC(SCc1ccccc1)c1cccnc1 (centres unmarked) [Example 177]	9	0	0	0	0	0	0	0
O=[N+]([O-])CC(SCc1ccccc1)c1ccc(OC(F)(F)F)cc1 (centres unmarked) [Example 124]	0	7	0	0	0	0	9 (9 = 100% kill)	0
CCCCOC(=O)CSC(C[N+](=O)[O-])c1ccc2c(c1)OCO2 (centres unmarked) [Example 20]	9	8	0	0	0	0	0	0
CCCCOC(=O)CSC(C[N+](=O)[O-])c1cccc(OC)c1 (centres unmarked) [Example 57]	9	7	0	0	0	0	0	0
COC(=O)CSC(C[N+](=O)[O-])c1ccccc1 (centres unmarked) [Example 4]	9	9	0	4 (4 = 46-55% kill)	0	5 (5 = 56-65% kill)	0	0
CCCSC(C[N+](=O)[O-])c1ccc(OC)cc1 (centres unmarked) [Example 53]	9	9	4 (4 = 46-55% kill)	0	0	0	0	0
CCCCOC(=O)CSC(C[N+](=O)[O-])c1c(Cl)cccc1Cl (centres unmarked) [Example 134]	0	0	0	0	0	0	0	0
CCCOC(=O)CSC(C[N+](=O)[O-])c1c(Cl)cccc1Cl (centres unmarked) [Example 133]	0	0	0	0	0	0	0	9 (9 = 100% kill)
CCCSC(C[N+](=O)[O-])c1ccc(OC(F)(F)F)cc1 (racemic) [Example 122]	0	8	2 (2 = 26-35% kill)	9 (9 = 100% kill)	7 (7 = 76-85% kill)	0	7 (7 = 76-85% kill)	0
CCCOC(=O)CSC(C[N+](=O)[O-])c1cccc(C#N)c1 (racemic) [Example 100]	0	8	0	0	0	0	0	0
CCOC(=O)CSC(C[N+](=O)[O-])c1c(Cl)cccc1Cl (centres unmarked) [Example 132]	0	0	0	0	0	0	9 (9 = 100% kill)	9 (9 = 100% kill)
C=CCSC(C[N+](=O)[O-])c1cccc([N+](=O)[O-])c1 (centres unmarked) [Example 129]	0	0	0	0	0	0	0	0
CCCCOC(=O)CSC(C[N+](=O)[O-])c1ccc2ccccc2c1 (racemic) [Example 113]	0	9	3 (3 = 36-45% kill)	0	0	0	9 (9 = 100% kill)	0
COc1cccc(C(C[N+](=O)[O-])SCC(=O)OCCCCCC(C)C)c1 (centres unmarked) [Example 58]	0	0	0	0	0	0	0	0
CCCCOC(=O)CSC(C[N+](=O)[O-])c1ccc(OC)cc1 (centres unmarked) [Example 49]	9	9	0	0	0	0	0	0
O=C(CSC(C[N+](=O)[O-])c1cccnc1)OCc1ccccc1 (centres unmarked) [Example 174]	9	0	0	0	0	0	0	0
CCCCOC(=O)CSC(C[N+](=O)[O-])c1ccc(OC(F)(F)F)cc1 (racemic) [Example 120]	9	0	0	0	0	0	0	0
O=[N+]([O-])CC(SCc1ccccc1)c1ccc2ccccc2c1 (racemic) [Example 116]	0	0	0	0	0	0	0	0
CCCOC(=O)CSC(C[N+](=O)[O-])c1ccc2c(c1)OCO2 (racemic) [Example 104]	8	9	0	0	0	0	0	0
